Assay results taken from US8158636B2, “Compounds and methods for kinase modulation, and indications therefor” (Plexxikon Inc., priority 2008, dated 2012).

Assays:
Type in all cases: biochemical
Fms = Fms (Homo sapiens, UniProt P07333); test: Kinase activity assay, Fms; settings: Table 1h; read-out: activity toward kinase Fms, IC50
Excerpt: (§1) Assays for the activity of kinases, including, but not limited to, Fms, Kit, B-Raf, B-Raf V600E, c-Raf-1, and TrkA are known in the art, for example as described in US Patent Publication Number US20070032519 and U.S. patent application Ser. No. 11/473,347 (see also, PCT publication WO2007002433), the disclosures of which are hereby incorporated by reference with respect to such assays.

Kdr = Kdr (Homo sapiens, UniProt P35968); test: Kinase activity assay, Kdr; settings: Table 1i; read-out: activity toward kinase Kdr, IC50
Chain of Kdr (P35968 20-1356): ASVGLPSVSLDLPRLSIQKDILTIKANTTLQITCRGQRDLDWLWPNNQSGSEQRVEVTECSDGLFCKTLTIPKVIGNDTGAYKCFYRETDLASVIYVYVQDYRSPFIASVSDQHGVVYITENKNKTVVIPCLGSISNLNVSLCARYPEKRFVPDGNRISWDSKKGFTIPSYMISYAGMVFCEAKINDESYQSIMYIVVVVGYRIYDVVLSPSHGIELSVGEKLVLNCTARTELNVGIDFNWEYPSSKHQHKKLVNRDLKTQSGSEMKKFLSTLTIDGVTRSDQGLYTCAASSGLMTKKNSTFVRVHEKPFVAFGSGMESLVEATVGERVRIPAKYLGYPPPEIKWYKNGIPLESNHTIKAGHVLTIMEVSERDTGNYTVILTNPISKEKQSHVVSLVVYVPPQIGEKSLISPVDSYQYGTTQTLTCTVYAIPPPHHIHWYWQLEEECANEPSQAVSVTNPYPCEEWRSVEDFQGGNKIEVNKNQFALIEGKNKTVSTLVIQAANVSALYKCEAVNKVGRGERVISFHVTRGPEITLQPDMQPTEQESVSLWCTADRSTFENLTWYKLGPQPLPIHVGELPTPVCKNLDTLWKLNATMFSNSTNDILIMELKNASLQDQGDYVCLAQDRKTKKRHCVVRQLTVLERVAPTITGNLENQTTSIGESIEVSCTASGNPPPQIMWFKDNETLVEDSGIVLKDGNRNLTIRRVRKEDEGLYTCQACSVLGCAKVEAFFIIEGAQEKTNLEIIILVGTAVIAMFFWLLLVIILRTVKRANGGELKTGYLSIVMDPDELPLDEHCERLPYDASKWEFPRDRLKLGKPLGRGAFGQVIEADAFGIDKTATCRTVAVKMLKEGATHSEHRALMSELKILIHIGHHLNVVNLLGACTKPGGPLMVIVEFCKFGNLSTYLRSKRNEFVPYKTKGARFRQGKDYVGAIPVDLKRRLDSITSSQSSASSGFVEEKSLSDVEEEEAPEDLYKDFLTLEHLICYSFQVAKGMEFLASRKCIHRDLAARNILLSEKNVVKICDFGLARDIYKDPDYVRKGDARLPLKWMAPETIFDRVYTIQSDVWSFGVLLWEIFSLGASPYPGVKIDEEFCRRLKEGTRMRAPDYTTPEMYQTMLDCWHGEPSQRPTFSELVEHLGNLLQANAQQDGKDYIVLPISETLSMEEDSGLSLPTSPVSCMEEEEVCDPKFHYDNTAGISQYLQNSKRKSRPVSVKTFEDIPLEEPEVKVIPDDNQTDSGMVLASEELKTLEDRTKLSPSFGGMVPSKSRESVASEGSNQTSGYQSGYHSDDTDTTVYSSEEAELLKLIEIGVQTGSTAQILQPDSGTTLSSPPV
Excerpt: as §1

Kit = Kit (Homo sapiens, UniProt P10721); test: Kinase activity assay, Kit; settings: Table 1j; read-out: activity toward kinase Kit, IC50
Chain of Kit (P10721 26-976): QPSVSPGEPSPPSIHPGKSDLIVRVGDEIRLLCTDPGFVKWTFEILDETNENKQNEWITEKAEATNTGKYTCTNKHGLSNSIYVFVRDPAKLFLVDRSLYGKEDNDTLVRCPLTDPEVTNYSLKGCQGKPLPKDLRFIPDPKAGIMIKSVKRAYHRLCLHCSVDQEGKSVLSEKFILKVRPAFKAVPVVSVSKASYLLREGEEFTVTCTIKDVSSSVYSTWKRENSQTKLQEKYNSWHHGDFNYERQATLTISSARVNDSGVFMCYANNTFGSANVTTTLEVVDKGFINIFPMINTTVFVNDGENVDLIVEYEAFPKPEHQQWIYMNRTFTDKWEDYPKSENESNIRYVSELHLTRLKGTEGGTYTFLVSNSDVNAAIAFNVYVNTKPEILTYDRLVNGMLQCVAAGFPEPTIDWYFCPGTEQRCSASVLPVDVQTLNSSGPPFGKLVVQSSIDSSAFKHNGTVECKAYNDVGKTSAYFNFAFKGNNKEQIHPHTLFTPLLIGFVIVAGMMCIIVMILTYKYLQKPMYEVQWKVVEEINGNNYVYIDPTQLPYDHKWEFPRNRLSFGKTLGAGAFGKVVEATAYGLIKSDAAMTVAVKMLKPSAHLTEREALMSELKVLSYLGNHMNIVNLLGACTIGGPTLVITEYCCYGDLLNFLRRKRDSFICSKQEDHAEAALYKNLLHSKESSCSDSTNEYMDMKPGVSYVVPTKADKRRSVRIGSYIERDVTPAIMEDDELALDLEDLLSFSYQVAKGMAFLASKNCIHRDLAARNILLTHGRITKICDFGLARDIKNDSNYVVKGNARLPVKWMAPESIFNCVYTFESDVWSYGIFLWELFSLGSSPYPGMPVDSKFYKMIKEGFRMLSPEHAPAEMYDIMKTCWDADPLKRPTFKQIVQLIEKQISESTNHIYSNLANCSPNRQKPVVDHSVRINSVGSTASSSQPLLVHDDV
Excerpt: as §1

Chain of Fms (P07333 20-972): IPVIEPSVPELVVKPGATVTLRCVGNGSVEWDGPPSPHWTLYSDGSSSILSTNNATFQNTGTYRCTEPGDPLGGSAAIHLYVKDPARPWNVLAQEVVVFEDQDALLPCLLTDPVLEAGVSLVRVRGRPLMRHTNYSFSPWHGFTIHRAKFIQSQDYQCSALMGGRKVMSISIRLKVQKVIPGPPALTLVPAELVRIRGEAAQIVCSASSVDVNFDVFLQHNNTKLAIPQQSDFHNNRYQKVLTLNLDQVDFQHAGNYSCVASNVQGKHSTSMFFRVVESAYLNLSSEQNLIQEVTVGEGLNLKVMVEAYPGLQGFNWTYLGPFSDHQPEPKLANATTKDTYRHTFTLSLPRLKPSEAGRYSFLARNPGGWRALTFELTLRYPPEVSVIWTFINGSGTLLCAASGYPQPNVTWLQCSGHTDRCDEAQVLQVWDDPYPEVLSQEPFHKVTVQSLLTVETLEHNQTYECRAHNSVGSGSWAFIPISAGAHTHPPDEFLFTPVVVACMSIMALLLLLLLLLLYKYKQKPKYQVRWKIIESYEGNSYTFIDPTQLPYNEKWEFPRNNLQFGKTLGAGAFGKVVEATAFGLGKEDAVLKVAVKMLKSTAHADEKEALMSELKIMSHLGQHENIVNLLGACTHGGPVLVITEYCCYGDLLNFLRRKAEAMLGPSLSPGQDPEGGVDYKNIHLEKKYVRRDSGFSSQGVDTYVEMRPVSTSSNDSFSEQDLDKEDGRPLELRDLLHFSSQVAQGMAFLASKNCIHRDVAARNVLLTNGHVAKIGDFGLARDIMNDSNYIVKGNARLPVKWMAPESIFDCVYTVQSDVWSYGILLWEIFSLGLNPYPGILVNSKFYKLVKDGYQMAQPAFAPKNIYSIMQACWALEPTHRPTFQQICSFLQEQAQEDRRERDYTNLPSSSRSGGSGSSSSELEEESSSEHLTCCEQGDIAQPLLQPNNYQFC

Row | Compound | IC50 (Fms) [µM] | IC50 (Kdr) [µM] | IC50 (Kit) [µM]
1 | COc1ccc(CNc2ncc(Cc3c[nH]c4ncncc34)cn2)cn1 [P-0015, (6-Methoxy-pyridin-3-ylmethyl)-[5-(7H-pyrrolo[2,3-d]pyrimidin-5-ylmethyl)-pyrimidin-2-yl]-amine] | ≤ 10 | ≤ 10 | ≤ 10
2 | Cc1cc(CNc2ccc(Cc3c[nH]c4ncncc34)c(F)n2)ccn1 [P-0020, [6-Fluoro-5-(7H-pyrrolo[2,3-d]pyrimidin-5-ylmethyl)-pyridin-2-yl]-(2-methyl-pyridin-4-ylmethyl)-amine] | ≤ 10 | ≤ 10 | –
3 | CCc1ccc(CNc2ncc(Cc3c[nH]c4ncncc34)cn2)nc1 [P-0033, (5-Ethyl-pyridin-2-ylmethyl)-[5-(7H-pyrrolo[2,3-d]pyrimidin-5-ylmethyl)-pyrimidin-2-yl]-amine] | ≤ 10 | ≤ 10 | ≤ 10
4 | CNc1ncccc1CNc1ccc(Cc2c[nH]c3ncncc23)c(F)n1 [P-0066, [6-Fluoro-5-(7H-pyrrolo[2,3-d]pyrimidin-5-ylmethyl)-pyridin-2-yl]-(2-methylamino-pyridin-3-ylmethyl)-amine] | ≤ 10 | ≤ 10 | –
5 | Clc1ccc(CNc2ncc(Cc3c[nH]c4ncncc34)cn2)cn1 [P-0029, (6-Chloro-pyridin-3-ylmethyl)-[5-(7H-pyrrolo[2,3-d]pyrimidin-5-ylmethyl)-pyrimidin-2-yl]-amine] | ≤ 10 | ≤ 10 | ≤ 10
6 | Cc1cnccc1CNc1ccc(Cc2c[nH]c3ncncc23)c(F)n1 [P-0055, [6-Fluoro-5-(7H-pyrrolo[2,3-d]pyrimidin-5-ylmethyl)-pyridin-2-yl]-(3-methyl-pyridin-4-ylmethyl)-amine] | ≤ 10 | – | –
7 | COc1ccc(CNc2ccc(C(=O)c3c[nH]c4ncncc34)c(C)n2)cn1 [P-0019, {6-[(6-Methoxy-pyridin-3-ylmethyl)-amino]-2-methyl-pyridin-3-yl}-(7H-pyrrolo[2,3-d]pyrimidin-5-yl)-methanone] | ≤ 10 | – | –
8 | Cc1ccnc(CNc2ccc(Cc3c[nH]c4ncncc34)c(F)n2)c1 [P-0058, [6-Fluoro-5-(7H-pyrrolo[2,3-d]pyrimidin-5-ylmethyl)-pyridin-2-yl]-(4-methyl-pyridin-2-ylmethyl)-amine] | ≤ 10 | ≤ 10 | –
9 | c1cc(CNc2ncc(Cc3c[nH]c4ncncc34)cn2)nc(N2CCOCC2)c1 [P-0031, (6-Morpholin-4-yl-pyridin-2-ylmethyl)-[5-(7H-pyrrolo[2,3-d]pyrimidin-5-ylmethyl)-pyrimidin-2-yl]-amine] | ≤ 10 | ≤ 10 | ≤ 10
10 | COc1cc(F)cc(CNc2ccc(Cc3c[nH]c4ncncc34)c(F)n2)c1 [P-0083, (3-Fluoro-5-methoxy-benzyl)-[6-fluoro-5-(7H-pyrrolo[2,3-d]pyrimidin-5-ylmethyl)-pyridin-2-yl]-amine] | ≤ 10 | ≤ 10 | ≤ 10
11 | Cc1ncc(CNc2ccc(Cc3c[nH]c4ncncc34)c(F)n2)cn1 [P-0048, [6-Fluoro-5-(7H-pyrrolo[2,3-d]pyrimidin-5-ylmethyl)-pyridin-2-yl]-(2-methyl-pyrimidin-5-ylmethyl)-amine] | ≤ 10 | – | –
12 | Fc1nc(NCc2ccc(Cl)cn2)ccc1Cc1c[nH]c2ncncc12 [P-0027, (5-Chloro-pyridin-2-ylmethyl)-[6-fluoro-5-(7H-pyrrolo[2,3-d]pyrimidin-5-ylmethyl)-pyridin-2-yl]-amine] | ≤ 10 | ≤ 10 | ≤ 10
13 | COc1ncccc1CNc1ccc(Cc2c[nH]c3ncncc23)c(F)n1 [P-0026, [6-Fluoro-5-(7H-pyrrolo[2,3-d]pyrimidin-5-ylmethyl)-pyridin-2-yl]-(2-methoxy-pyridin-3-ylmethyl)-amine] | ≤ 10 | ≤ 10 | ≤ 10
14 | COc1cc(CNc2ccc(Cc3c[nH]c4ncncc34)c(F)n2)ccn1 [P-0023, [6-Fluoro-5-(7H-pyrrolo[2,3-d]pyrimidin-5-ylmethyl)-pyridin-2-yl]-(2-methoxy-pyridin-4-ylmethyl)-amine] | ≤ 10 | ≤ 10 | ≤ 10
15 | COc1cc(CNc2ncc(Cc3c[nH]c4ncncc34)cn2)c(F)cn1 [P-0025, (5-Fluoro-2-methoxy-pyridin-4-ylmethyl)-[5-(7H-pyrrolo[2,3-d]pyrimidin-5-ylmethyl)-pyrimidin-2-yl]-amine] | ≤ 10 | ≤ 10 | –
16 | CCOc1ncccc1CNc1ncc(Cc2c[nH]c3ncncc23)cn1 [P-0085, (2-Ethoxy-pyridin-3-ylmethyl)-[5-(7H-pyrrolo[2,3-d]pyrimidin-5-ylmethyl)-pyrimidin-2-yl]-amine] | ≤ 10 | ≤ 10 | ≤ 10
17 | Fc1nc(NCc2ccncc2Cl)ccc1Cc1c[nH]c2ncncc12 [P-0047, (3-Chloro-pyridin-4-ylmethyl)-[6-fluoro-5-(7H-pyrrolo[2,3-d]pyrimidin-5-ylmethyl)-pyridin-2-yl]-amine] | ≤ 10 | ≤ 10 | –

Row | Compound | IC50 (Fms) [µM] | IC50 (Kdr) [µM] | IC50 (Kit) [µM]
18 | COc1ccc(CNc2ncc(Cc3c[nH]c4ncncc34)cc2C)cn1 [P-0012, (6-Methoxy-pyridin-3-ylmethyl)-[3-methyl-5-(7H-pyrrolo[2,3-d]pyrimidin-5-ylmethyl)-pyridin-2-yl]-amine] | ≤ 10 | ≤ 10 | ≤ 10
19 | Fc1nc(NCc2ccnc(N3CCCC3)c2)ccc1Cc1c[nH]c2ncncc12 [P-0059, [6-Fluoro-5-(7H-pyrrolo[2,3-d]pyrimidin-5-ylmethyl)-pyridin-2-yl]-(2-pyrrolidin-1-yl-pyridin-4-ylmethyl)-amine] | ≤ 10 | ≤ 10 | –
20 | COc1ncccc1CNc1ncc(Cc2c[nH]c3ncncc23)cn1 [P-0084, (2-Methoxy-pyridin-3-ylmethyl)-[5-(7H-pyrrolo[2,3-d]pyrimidin-5-ylmethyl)-pyrimidin-2-yl]-amine] | ≤ 10 | – | ≤ 10
21 | c1cc(CNc2ncc(Cc3c[nH]c4ncncc34)cn2)nc(N2CCCC2)c1 [P-0032, (6-Pyrrolidin-1-yl-pyridin-2-ylmethyl)-[5-(7H-pyrrolo[2,3-d]pyrimidin-5-ylmethyl)-pyrimidin-2-yl]-amine] | ≤ 10 | ≤ 10 | ≤ 10
22 | Fc1cnccc1CNc1ccc(Cc2c[nH]c3ncncc23)c(F)n1 [P-0049, (3-Fluoro-pyridin-4-ylmethyl)-[6-fluoro-5-(7H-pyrrolo[2,3-d]pyrimidin-5-ylmethyl)-pyridin-2-yl]-amine] | ≤ 10 | – | –
23 | Fc1nc(NCc2cnccc2C(F)(F)F)ccc1Cc1c[nH]c2ncncc12 [P-0018, [6-Fluoro-5-(7H-pyrrolo[2,3-d]pyrimidin-5-ylmethyl)-pyridin-2-yl]-(4-trifluoromethyl-pyridin-3-ylmethyl)-amine] | ≤ 10 | ≤ 10 | ≤ 10
24 | c1cc(CNc2ncc(Cc3c[nH]c4ncncc34)cn2)cc(OC2CCCC2)n1 [P-0087, (2-Cyclopentyloxy-pyridin-4-ylmethyl)-[5-(7H-pyrrolo[2,3-d]pyrimidin-5-ylmethyl)-pyrimidin-2-yl]-amine] | ≤ 10 | ≤ 10 | ≤ 10
25 | FC(F)(F)c1ccc(CNc2ncc(Cc3c[nH]c4ncncc34)cn2)cn1 [P-0030, [5-(7H-Pyrrolo[2,3-d]pyrimidin-5-ylmethyl)-pyrimidin-2-yl]-(6-trifluoromethyl-pyridin-3-ylmethyl)-amine] | ≤ 10 | ≤ 10 | ≤ 10
26 | COc1ccncc1CNc1ccc(Cc2c[nH]c3ncncc23)c(F)n1 [P-0056, [6-Fluoro-5-(7H-pyrrolo[2,3-d]pyrimidin-5-ylmethyl)-pyridin-2-yl]-(4-methoxy-pyridin-3-ylmethyl)-amine] | ≤ 10 | – | –
27 | Cc1cc(CNc2ncc(Cc3c[nH]c4ncncc34)cn2)ccn1 [P-0035, (2-Methyl-pyridin-4-ylmethyl)-[5-(7H-pyrrolo[2,3-d]pyrimidin-5-ylmethyl)-pyrimidin-2-yl]-amine] | ≤ 10 | – | –
28 | Cc1cnccc1CNc1ncc(Cc2c[nH]c3ncncc23)cn1 [P-0034, (3-Methyl-pyridin-4-ylmethyl)-[5-(7H-pyrrolo[2,3-d]pyrimidin-5-ylmethyl)-pyrimidin-2-yl]-amine] | ≤ 10 | – | –
29 | COCCc1ncc(CNc2ccc(Cc3c[nH]c4ncncc34)c(F)n2)cn1 [P-0080, [6-Fluoro-5-(7H-pyrrolo[2,3-d]pyrimidin-5-ylmethyl)-pyridin-2-yl]-[2-(2-methoxy-ethyl)-pyrimidin-5-ylmethyl]-amine] | ≤ 10 | – | –
30 | CNc1ncc(CNc2ccc(Cc3c[nH]c4ncncc34)c(F)n2)cn1 [P-0042, (5-{[6-Fluoro-5-(7H-pyrrolo[2,3-d]pyrimidin-5-ylmethyl)-pyridin-2-ylamino]-methyl}-pyrimidin-2-yl)-methyl-amine] | ≤ 10 | – | –
31 | Fc1nc(NCc2ccncc2Br)ccc1Cc1c[nH]c2ncncc12 [P-0046, (3-Bromo-pyridin-4-ylmethyl)-[6-fluoro-5-(7H-pyrrolo[2,3-d]pyrimidin-5-ylmethyl)-pyridin-2-yl]-amine] | ≤ 10 | ≤ 10 | –
32 | c1ccc(CNc2ncc(Cc3c[nH]c4ncncc34)cn2)nc1 [P-0028, Pyridin-2-ylmethyl-[5-(7H-pyrrolo[2,3-d]pyrimidin-5-ylmethyl)-pyrimidin-2-yl]-amine] | ≤ 10 | – | –
33 | Fc1ncccc1CNc1ccc(Cc2c[nH]c3ncncc23)c(F)n1 [P-0068, (2-Fluoro-pyridin-3-ylmethyl)-[6-fluoro-5-(7H-pyrrolo[2,3-d]pyrimidin-5-ylmethyl)-pyridin-2-yl]-amine] | ≤ 10 | ≤ 10 | –
34 | Fc1cc(CNc2ccc(Cc3c[nH]c4ncncc34)c(F)n2)ccn1 [P-0074, (2-Fluoro-pyridin-4-ylmethyl)-[6-fluoro-5-(7H-pyrrolo[2,3-d]pyrimidin-5-ylmethyl)-pyridin-2-yl]-amine] | ≤ 10 | ≤ 10 | –
